Data set [1] concerns Huh-7 (hepatocellular carcinoma). In words: CCK-8 cell viability / IC50, Huh-7. It is filed as cell-based, human. Conditions: 72 h; for Activity against Huh-7 cells (in words) / viability at 50 µM: 50 μM, CCK-8; for viability at 50 µM / IC50: Homo sapiens, Huh-7; for IC50: CCK-8 dose-response. Here is the method:
(§1) To assess the cytotoxic potential of the newly synthesized compounds c1–c20, a panel of human tumor cell lines—including Huh-7 (hepatocellular carcinoma), MCF-7 (breast cancer), and A549 (lung cancer)—was treated with each compound at a concentration of 50 μM for 72 h. Cell viability and cytotoxicity were evaluated using the CCK-8 assay.
(§2) Cells were cultured in DMEM or RPMI 1640 medium with 10% FBS and 1% penicillin/streptomycin at 37 °C and 5% CO2. A CCK-8 assay was performed with several human cancer cell lines, including A549, Huh-7, MCF-7, HCT-116, and SKOV3, according to the instructions. Cells were plated at a density of 1,000–3,000 cells per well in a 96-well plate. After 24-h incubation, cells were treated with 40 μM compounds for 48 h or 50 μM compounds for 72 h. Cell viability was measured by adding 10 μL per well of CCK-8 reagent, which was dissolved in the cell culture medium, for 1 hour. Absorbance was taken at 450 nm using a microplate reader. The IC50 values of the compounds were further determined. Cells were seeded in a 96-well plate at a density of 1 × 10^3 cells/well. After adhering overnight, cells treated with […] concentrations (10 μM, 20 μM, 40 µM, or 80 μM) were used to draw the dose–response curve, and IC50 values were calculated by GraphPad Prism software. The CCK-8 assay was performed in triplicate, and each experiment was repeated at least three times. The results were expressed as mean ± SEM, and P < 0.05 was considered statistically significant.

The test system of a further data set is MCF-7 (breast cancer). Briefly: CCK-8 cell viability, MCF-7. Conditions: Homo sapiens, MCF7, 72 h. The data set is classed as cell-based. Here is the method:
as §1, §2

The next data set relates to A549 (lung cancer). In words: CCK-8 cell viability, A549. The data set is classed as cell-based. Conditions: Homo sapiens, 72 h. How it is done: as §1, §2
Data set [2] in a line: CCK-8 cell viability, L02. The data set is classed as cell-based. Conditions: human, L02 normal liver cells.
Data set [3] relates to HCT116 colon cancer cells. On the set-up: method as in Mohammed et al., 2022. Conditions: ref Mohammed et al., 2022; read-out: Cytotoxicity against HCT116, IC50; cited from earlier work.

SMILES strings stand for the structures.

Broadly, the viability is a read-out of living cells in per cent, often relative to untreated cells. Broadly, the IC50 is the point on the concentration scale where inhibition reaches its midpoint.

In the case of `O=C1COc2cc(NC(=O)c3cccc(-c4cn(Cc5ccccc5Br)nn4)c3)ccc2N1` [compound c12, 3-(1-(2-bromobenzyl)-1H-1,2,3-triazol-4-yl)-N-(3-oxo-3,4-dihydro-2H-benzo[b][1,4]oxazin-7-yl)benzamide], the “Activity against Huh-7 cells (in words)” value in data set [1] is on record as “limited activity”. For the same compound, the viability at 50 µM in data set [1] was 86.1 ± 1.69%; in the data set on MCF-7 (breast cancer) it was 87.15 ± 0.55%; with A549 (lung cancer), 87.7 ± 3.88%. The viability at 72 h, 50 µM in data set [2] was found to be 105 ± 2.71%.
For the compound `Cc1ccccc1Cn1cc(-c2cccc(C(=O)Nc3ccc4c(c3)OCC(=O)N4)c2)nn1` [compound c20, 3-(1-(2-methylbenzyl)-1H-1,2,3-triazol-4-yl)-N-(3-oxo-3,4-dihydro-2H-benzo[b][1,4]oxazin-7-yl)benzamide], the values for the viability at 50 µM (in data set [1]; with MCF-7 (breast cancer); in the data set with A549 (lung cancer)) were 23.6 ± 0.25%, 112 ± 4.59% and 97.85 ± 0.92%, respectively. In data set [1], this compound came in with an IC50 of 45.9 ± 0.5 µM. In data set [2], the viability at 72 h, 50 µM was 119.1 ± 0.57%.
As to `COc1cc(/C=C/C(=O)c2ccc(-n3cc(CN4CCN(c5cc6c(cc5F)c(=O)c(C(=O)O)cn6C5CC5)CC4)nn3)cc2)cc(OC)c1OC` [compound 4j], in data set [3], the IC50 is 2.53 µM.
For `O=c1[nH]cc(F)c(=O)[nH]1` [5-fluorouracil, reference compound], in data set [1], the IC50 was 21 ± 6.37 µM.
`O=C1COc2cc(NC(=O)c3cccc(-c4cn(Cc5cccc(I)c5)nn4)c3)ccc2N1` [compound c19, 3-(1-(3-iodobenzyl)-1H-1,2,3-triazol-4-yl)-N-(3-oxo-3,4-dihydro-2H-benzo[b][1,4]oxazin-7-yl)benzamide]: the viability at 50 µM came to 28.5 ± 3.64% in data set [1], 97.2 ± 2.06% in the data set on MCF-7 (breast cancer) and 80.5 ± 3.81% in the data set with A549 (lung cancer). The compound further showed an IC50 in data set [1] of 36.19 ± 0.09 µM. The viability at 72 h, 50 µM in data set [2] was determined as 103.4 ± 0.62%.
For `O=C1COc2cc(NC(=O)c3cccc(-c4cn(Cc5cccc(C(F)(F)F)c5)nn4)c3)ccc2N1` [compound c8, N-(3-oxo-3,4-dihydro-2H-benzo[b][1,4]oxazin-7-yl)-3-(1-(3-(trifluoromethyl)benzyl)-1H-1,2,3-triazol-4-yl)benzamide], in that order: 13 ± 0.72%, 101 ± 4.5%, 86.1 ± 5.46%, 38.48 ± 0.24 µM and 103 ± 3.1%.
For `O=C1COc2cc(NC(=O)c3cccc(-c4cn(Cc5ccccc5F)nn4)c3)ccc2N1` [compound c3, 3-(1-(2-fluorobenzyl)-1H-1,2,3-triazol-4-yl)-N-(3-oxo-3,4-dihydro-2H-benzo[b][1,4]oxazin-7-yl)benzamide], in that order: 12.1 ± 0.58%, 108.3 ± 0.68%, 92.2 ± 3.87%, 43.41 ± 0.08 µM and 101 ± 3.04%.
For `O=C1COc2cc(NC(=O)c3cccc(-c4cn(Cc5cccc(Cl)c5)nn4)c3)ccc2N1` [compound c2, 3-(1-(3-chlorobenzyl)-1H-1,2,3-triazol-4-yl)-N-(3-oxo-3,4-dihydro-2H-benzo[b][1,4]oxazin-7-yl)benzamide] the same measures were 17.5 ± 1.15%, 103 ± 1.63%, 95.6 ± 2.98%, 33.4 ± 0.8 µM and 103 ± 2.36%.
As to `O=C1COc2cc(NC(=O)c3cccc(-c4cn(Cc5c(F)cccc5F)nn4)c3)ccc2N1` [compound c10, 3-(1-(2,6-difluorobenzyl)-1H-1,2,3-triazol-4-yl)-N-(3-oxo-3,4-dihydro-2H-benzo[b][1,4]oxazin-7-yl)benzamide], the viability at 50 µM in data set [1] amounted to 24.9 ± 0.39%; in the data set on MCF-7 (breast cancer) it was 81.6 ± 1.46%; in the data set with A549 (lung cancer), 61.1 ± 3.58%. The same compound returned an IC50 in data set [1] of more than 50 µM. Further, the viability at 72 h, 50 µM in data set [2] was 68.5 ± 2.04%.
For `Cc1cc(C)cc(Cn2cc(-c3cccc(C(=O)Nc4ccc5c(c4)OCC(=O)N5)c3)nn2)c1` [compound c6, 3-(1-(3,5-dimethylbenzyl)-1H-1,2,3-triazol-4-yl)-N-(3-oxo-3,4-dihydro-2H-benzo[b][1,4]oxazin-7-yl)benzamide], in that order: 25.6 ± 1.32%, 84.8 ± 3.5%, 81.6 ± 5.09%, more than 50 µM and 99.7 ± 2.5%.
Consider `COc1cccc2c1C(=O)c1c(O)c3c(c(O)c1C2=O)C[C@@](O)(C(=O)CO)C[C@@H]3O[C@H]1C[C@H](N)[C@H](O)[C@H](C)O1` [doxorubicin], for which the IC50 in data set [3] is 1.22 µM.
In the case of `O=C1COc2cc(NC(=O)c3cccc(-c4cn(Cc5ccc(F)c(Cl)c5)nn4)c3)ccc2N1` [compound c9, 3-(1-(3-chloro-4-fluorobenzyl)-1H-1,2,3-triazol-4-yl)-N-(3-oxo-3,4-dihydro-2H-benzo[b][1,4]oxazin-7-yl)benzamide], the viability at 50 µM was found to be 18.8 ± 0.56% in data set [1], 110 ± 2.58% in the data set on MCF-7 (breast cancer) and 86.2 ± 4.4% with A549 (lung cancer). Also, the IC50 in data set [1] is 43.1 ± 2.43 µM. Besides, the viability at 72 h, 50 µM in data set [2] worked out at 103 ± 3.98%.
For `O=C1COc2cc(NC(=O)c3cccc(-c4cn(Cc5ccc(Br)cc5F)nn4)c3)ccc2N1` [compound c13, 3-(1-(4-bromo-2-fluorobenzyl)-1H-1,2,3-triazol-4-yl)-N-(3-oxo-3,4-dihydro-2H-benzo[b][1,4]oxazin-7-yl)benzamide] the same measures were 17.7 ± 1.58%, 98.9 ± 2.03%, 78.3 ± 2.72%, more than 50 µM and 115 ± 1.35%.
Take `O=C1COc2cc(NC(=O)c3cccc(-c4cn(Cc5c(Cl)cccc5Cl)nn4)c3)ccc2N1` [compound c1, 3-(1-(2,6-dichlorobenzyl)-1H-1,2,3-triazol-4-yl)-N-(3-oxo-3,4-dihydro-2H-benzo[b][1,4]oxazin-7-yl)benzamide]: the “Activity against Huh-7 cells (in words)” value in data set [1] is listed as “limited activity”. The values for the viability at 50 µM (in data set [1]; with MCF-7 (breast cancer); with A549 (lung cancer)) were 83.49 ± 0.78%, 110 ± 3.84% and 97.4 ± 3.35%, respectively. Besides, in data set [2], the viability at 72 h, 50 µM was found to be 84.1 ± 1.2%.
For `N#Cc1ccccc1Cn1cc(-c2cccc(C(=O)Nc3ccc4c(c3)OCC(=O)N4)c2)nn1` [compound c7, 3-(1-(2-cyanobenzyl)-1H-1,2,3-triazol-4-yl)-N-(3-oxo-3,4-dihydro-2H-benzo[b][1,4]oxazin-7-yl)benzamide], in that order: “limited activity”, 89.1 ± 3.02%, 89.2 ± 3.16%, 87.7 ± 6.4% and 101 ± 3.14%.
In the case of `O=C1COc2cc(NC(=O)c3cccc(-c4cn(Cc5ccc(I)cc5)nn4)c3)ccc2N1` [compound c4, 3-(1-(4-iodobenzyl)-1H-1,2,3-triazol-4-yl)-N-(3-oxo-3,4-dihydro-2H-benzo[b][1,4]oxazin-7-yl)benzamide], the viability at 50 µM worked out at 21.4 ± 4.91% in data set [1], 95.9 ± 2.14% in the data set on MCF-7 (breast cancer) and 94 ± 1.88% in the data set on A549 (lung cancer). For the same compound, the midpoint of inhibition in data set [1], the IC50, lay at 33.21 ± 0.11 µM. In addition, the viability at 72 h, 50 µM in data set [2] was 115.2 ± 0.81%.
Take `N#Cc1ccc(F)cc1Cn1cc(-c2cccc(C(=O)Nc3ccc4c(c3)OCC(=O)N4)c2)nn1` [compound c11, 3-(1-(2-cyano-5-fluorobenzyl)-1H-1,2,3-triazol-4-yl)-N-(3-oxo-3,4-dihydro-2H-benzo[b][1,4]oxazin-7-yl)benzamide]: the “Activity against Huh-7 cells (in words)” value in data set [1] was “limited activity”. For the same compound, the figures for the viability at 50 µM (in data set [1]; in the data set on MCF-7 (breast cancer); with A549 (lung cancer)) were 98 ± 1.22%, 92.96 ± 0.64% and 85.4 ± 2.84%, respectively. In addition, the viability at 72 h, 50 µM in data set [2] is 111 ± 2.9%.
For `O=C1COc2cc(NC(=O)c3cccc(-c4cn(Cc5c(F)cccc5Cl)nn4)c3)ccc2N1` [compound c15, 3-(1-(2-chloro-6-fluorobenzyl)-1H-1,2,3-triazol-4-yl)-N-(3-oxo-3,4-dihydro-2H-benzo[b][1,4]oxazin-7-yl)benzamide], in that order: “limited activity”, 75.8 ± 2.97%, 84.6 ± 1.32%, 86.5 ± 2.25% and 113.7 ± 1.08%.
As for `O=C1COc2cc(NC(=O)c3cccc(-c4cn(Cc5cccc(Br)c5)nn4)c3)ccc2N1` [compound c17, 3-(1-(3-bromobenzyl)-1H-1,2,3-triazol-4-yl)-N-(3-oxo-3,4-dihydro-2H-benzo[b][1,4]oxazin-7-yl)benzamide], the viability at 50 µM in data set [1] stood at 19.2 ± 1.88%; with MCF-7 (breast cancer), 90.41 ± 0.51%; in the data set with A549 (lung cancer), 71.3 ± 2.9%. This compound yielded an IC50 in data set [1] of 35.1 ± 1.84 µM. In addition, the viability at 72 h, 50 µM in data set [2] amounted to 111.7 ± 0.92%.

The values are drawn from paper PMC12394750, “2H-1,4-Benzoxazin-3(4H)-one linked 1,2,3-triazole derivatives and their study on inducing DNA damage in tumor cells” (Frontiers in Pharmacology, 2025).
